In data set [1] the target is T1, ASK1 T838 auto phosphorylation (Homo sapiens, UniProt Q99683).
T1 construct: transfected with 9 μg of ASK1-V5 tagged full length plasmid; expressed in transfected cells; host or cells: HEK-293T
T1 sequence (Q99683 1-1374): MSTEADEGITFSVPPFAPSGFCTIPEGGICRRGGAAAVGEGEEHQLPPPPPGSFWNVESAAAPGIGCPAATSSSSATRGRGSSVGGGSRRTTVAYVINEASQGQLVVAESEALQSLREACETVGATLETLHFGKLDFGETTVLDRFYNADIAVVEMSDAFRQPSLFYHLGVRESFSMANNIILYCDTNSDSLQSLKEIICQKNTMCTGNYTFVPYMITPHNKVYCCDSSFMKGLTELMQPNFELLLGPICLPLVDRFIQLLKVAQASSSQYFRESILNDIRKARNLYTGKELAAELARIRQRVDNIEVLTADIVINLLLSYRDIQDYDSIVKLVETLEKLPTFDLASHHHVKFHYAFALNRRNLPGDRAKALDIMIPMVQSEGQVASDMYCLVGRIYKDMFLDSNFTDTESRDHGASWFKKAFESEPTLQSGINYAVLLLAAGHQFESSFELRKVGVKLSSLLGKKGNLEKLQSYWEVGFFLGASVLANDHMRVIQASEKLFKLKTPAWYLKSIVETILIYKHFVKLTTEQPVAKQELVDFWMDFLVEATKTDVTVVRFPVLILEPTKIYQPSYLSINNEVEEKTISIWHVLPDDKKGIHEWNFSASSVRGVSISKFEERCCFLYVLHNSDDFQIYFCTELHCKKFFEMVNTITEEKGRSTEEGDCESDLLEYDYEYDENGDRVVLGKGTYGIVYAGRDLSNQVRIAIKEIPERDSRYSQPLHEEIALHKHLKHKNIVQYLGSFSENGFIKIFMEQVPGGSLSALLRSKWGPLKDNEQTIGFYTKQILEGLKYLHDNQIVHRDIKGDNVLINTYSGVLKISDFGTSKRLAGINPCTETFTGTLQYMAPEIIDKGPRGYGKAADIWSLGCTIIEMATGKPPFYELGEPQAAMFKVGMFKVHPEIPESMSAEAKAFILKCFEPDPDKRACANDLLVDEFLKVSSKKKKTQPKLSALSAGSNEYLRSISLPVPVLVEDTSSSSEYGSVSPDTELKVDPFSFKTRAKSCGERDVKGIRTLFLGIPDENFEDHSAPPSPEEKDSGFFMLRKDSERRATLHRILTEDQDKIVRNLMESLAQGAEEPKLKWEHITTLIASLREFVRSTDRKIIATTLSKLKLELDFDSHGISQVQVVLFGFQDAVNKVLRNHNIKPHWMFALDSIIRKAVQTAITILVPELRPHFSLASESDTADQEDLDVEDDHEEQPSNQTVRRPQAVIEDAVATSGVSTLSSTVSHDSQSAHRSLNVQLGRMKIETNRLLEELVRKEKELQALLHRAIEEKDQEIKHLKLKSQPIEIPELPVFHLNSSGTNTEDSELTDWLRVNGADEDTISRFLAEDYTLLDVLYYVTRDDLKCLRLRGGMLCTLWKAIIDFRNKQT
The data set can be described thus: ASK1 (AUTO PHOS T838) assay in HEK-293T cells, MSD format. The format is cell-based. As to conditions: HEK-293T cells transfected with ASK1-V5, 1 hr compound incubation; read-out: IC50. As for the experimental part: ASK1 T838 auto phosphorylation was measured in HEK-293T cells using MSD assay format. HEK 293T cells were seeded in 15 cm plates at a density of 18 million cells and 20 mL DMEM with 10% FBS, Pen/Strep media. The plates were incubated at 37° C. overnight. Media on plates was changed to OPTI-MEM, serum free media and cells were transfected with 9 μg of ASK1-V5 tagged full length plasmid using Lipofectamine 2000 (Invitrogen) and the plates were incubated at 37° C. overnight. Cells were trypsinized, counted on Nexcellometer and plated into 96 well tissue culture plates with 100,000 cells/well and 200 μL media. Cells were incubated for 4 hr at 37° C. then ASK1 compounds were added using a HP 300e. Compounds were tested at 20 μM with 3 fold, 10 point dilution points then incubated for 1 hr at 37° C. A lysis buffer (Cell Signaling) was prepared with protease and phosphatase inhibitor and maintained at 4° C. until use. Media from cells was discarded and 120 μL of cold lysis buffer was added to the cells, the plate was shaken 4° C. for 1 hr. Lysate was mixed using Apricot liquid handler; aspirating up and down 16 times at high speed using 50 μL volume. 50 μL of cell lysates were transferred to a pre-coated MSD plates containing mouse anti-V5 antibody (1:500 dilution) and washed 3× with MSD wash buffer (TBST) and blocked with a 3% BSA solution. Plates were then incubated on a plate shaker overnight at 4° C. Plates were washed 3× with MSD wash buffer and 50 μL of rabbit anti-pASK1 T838 antibody was added to the wells and incubated for 2 hr at room temperature on a plate shaker. Plates were then washed and 50 μL of goat anti-rabbit sulfa-tag (1:500 dilution) was added to wells, and incubated for 1 hr at room temperature on a plate shaker. Plates were washed 3× and 150 μL of 2×MSD Read buffer was added to wells. Plates were immediately read on a MSD Instrument Reader where chemoluminecense signal was measured. Data was analyzed using Graph Pad or Genedata, the data was normalized and plotted, % activity versus log of compound concentration. The IC50 values were obtained from a 4 parameter fit.

For a further data set, the target named is T2, ASK1/MAP3K5 (Homo sapiens, UniProt Q99683).
T2 construct: purchased Reaction Biology Corp. (Malvern, PA)
T2 sequence (Q99683 1-1374): T1 sequence (Q99683 1-1374)
Put plainly: ASK1/MAP3K5 assay by Reaction Biology Corp. (33P-ATP filter-binding). The data set is classed as biochemical. As to conditions: 20 μM MBP, 100 μM ATP. As for the experimental part:
Alternatively, the protein kinase inhibitory activity of the compounds described herein were tested using the ASK1/MAP3K5 assay by Reaction Biology Corp. (Malvern, PA). The assay procedure follows (and is also available on the Reaction Biology Corp. website). • Base Reaction Buffer: 20 mM Hepes (pH 7.5), 10 mM MgCl2, 1 mM EGTA, 0.02% Brij35, 0.02 mg/mL BSA, 0.1 mM Na3VO4, 2 mM DTT, 1% DMSO; • Substrate: 20 μM of myelin basic protein (MBP) and 100 μM ATP; • Protein kinase: ASK1/MAP3K5. Reaction Procedure: • 1. Prepare indicated substrate in freshly prepared Base Reaction Buffer. • 2. Deliver any required cofactors to the substrate solution. • 3. Deliver indicated kinase into the substrate solution and gently mix. • 4. Deliver compounds in DMSO into the kinase reaction mixture by Acoustic; technology (Echo550; nanoliter range), incubate for 20 minutes at room temperature. • 5. Deliver ^33P-ATP (specific activity 10 μCi/μL) into the reaction mixture to initiate the reaction. • 6. Incubate kinase reaction for 2 hours at room temperature. • 7. Reactions are spotted onto P81 ion exchange paper. • 8. Detect kinase activity by filter-binding method.

The target in the next data set is T3, MDR1 (Homo sapiens, UniProt P08183).
T3 construct: host or cells: MDCK
Put plainly: MDR1-MDCK assay. As to conditions: read-out: in vitro ER (efflux ratio). The data set is classed as in vitro ADME.

Data set [2] can be described thus: In vivo brain penetration (rat Kpuu). Conditions: brain and plasma (unbound concentrations), IV infusion four hours, 1 mg/kg, steady state.
Procedure: To evaluate the CNS penetration of the compounds described herein, several compounds were selected for in vivo rat Kpuu studies. In these experiments the compounds are administered via an IV infusion (using N,N-dimethylacetamide:ethanol:1,2-propylene glycol:water in a 1:1:3:5 ratio as the vehicle) in the carotid artery for a period of four hours (1 mg/kg, 0.1 mg/mL) to reach steady state. After this time the plasma and brain concentration levels are quantified, and the values are adjusted by the measured protein binding in plasma and brain homogenate to calculate the K puu (see Di, L.; Kerns, E. H. Blood-Brain Barrier in Drug Discovery (Wiley)) according to the equation below. […]
Plasma and brain protein binding values were generated via the Rapid Equilibrium Dialysis method. […] At the conclusion of incubation samples were taken from both matrix and buffered compartments, matrix-matched using blank buffer and matrix, extracted with acetonitrile, diluted with water, and analyzed utilizing an Agilent RapidFire 365 high-throughput LC coupled with MS/MS detection via an AB Sciex 5500. Free fractions (fu) were then calculated by comparing internal standard/analyte peak-area ratios of matrix and buffered compartments.
Total drug concentration in plasma and brain tissue was measured via well-established bioanalytical extraction (protein precipitation) and detection methods (LC-MS/MS). […]
The next data set deals with T4, GST-hASK1 (Homo sapiens, UniProt Q99683).
T4 construct: GST (N); purchased Life Technologies PV4011
T4 sequence (Q99683 1-1374): T1 sequence (Q99683 1-1374)
The data set can be described thus: ASK1 TR-FRET assay. The format is biochemical. As to conditions: 5 nM GST-hASK1, 100 μM ATP, 2 μM STK Substrate 3. As for the experimental part: The protein kinase activity of 5 nM GST-hASK1 (Life Technologies PV4011) was assayed with 100 μM ATP and 2 μM of HTRF biotinylated STK Substrate 3 (CisBio Kit 62ST3PEJ), at ambient temperature in 25 mM Hepes, pH 7.5, 50 mM NaCl, 10 mM MgCl2, 0.02% Brij-35, 1 mM DTT, and 1% DMSO.
Briefly, 20 μL aliquots of a 1.5× stock of ASK1, STK Substrate 3 and Assay Buffer were distributed in the wells of a white 384 well Optiplate, prior to addition of 0.3 μL of a 100× compound stock in DMSO, or DMSO alone in Blank and 100% Activity Controls. After a 10 minute pre-incubation, ASK1 protein kinase activity was initiated by addition of 10 μL of 300 μM ATP. After 5 hours, the kinase activity was quenched by addition of 30 μL of CisBio Kit 62ST3PEJ components: 0.5 μM of Streptavidin XL665; and 100×STK Antibody-Eu Cryptate; in Detection Buffer containing sufficient EDTA to chelate Mg^2+ in the assay buffer. The plates were read after 65 minutes in an Envision Plate reader, with the following components and settings: Top Mirror, Lance Delfia Dual (662); UV Ex Filter, 320 nm (111); Emission Filter for donor, 615 nm (203); Emission Filter for Acceptor; 665 nm (205); and 100 μsec delay, with 665/615 ratio output. […]
Background: Time-resolved FRET reads energy transfer from a long-lived donor to a nearby acceptor.

T3 sequence (P08183 whole entry): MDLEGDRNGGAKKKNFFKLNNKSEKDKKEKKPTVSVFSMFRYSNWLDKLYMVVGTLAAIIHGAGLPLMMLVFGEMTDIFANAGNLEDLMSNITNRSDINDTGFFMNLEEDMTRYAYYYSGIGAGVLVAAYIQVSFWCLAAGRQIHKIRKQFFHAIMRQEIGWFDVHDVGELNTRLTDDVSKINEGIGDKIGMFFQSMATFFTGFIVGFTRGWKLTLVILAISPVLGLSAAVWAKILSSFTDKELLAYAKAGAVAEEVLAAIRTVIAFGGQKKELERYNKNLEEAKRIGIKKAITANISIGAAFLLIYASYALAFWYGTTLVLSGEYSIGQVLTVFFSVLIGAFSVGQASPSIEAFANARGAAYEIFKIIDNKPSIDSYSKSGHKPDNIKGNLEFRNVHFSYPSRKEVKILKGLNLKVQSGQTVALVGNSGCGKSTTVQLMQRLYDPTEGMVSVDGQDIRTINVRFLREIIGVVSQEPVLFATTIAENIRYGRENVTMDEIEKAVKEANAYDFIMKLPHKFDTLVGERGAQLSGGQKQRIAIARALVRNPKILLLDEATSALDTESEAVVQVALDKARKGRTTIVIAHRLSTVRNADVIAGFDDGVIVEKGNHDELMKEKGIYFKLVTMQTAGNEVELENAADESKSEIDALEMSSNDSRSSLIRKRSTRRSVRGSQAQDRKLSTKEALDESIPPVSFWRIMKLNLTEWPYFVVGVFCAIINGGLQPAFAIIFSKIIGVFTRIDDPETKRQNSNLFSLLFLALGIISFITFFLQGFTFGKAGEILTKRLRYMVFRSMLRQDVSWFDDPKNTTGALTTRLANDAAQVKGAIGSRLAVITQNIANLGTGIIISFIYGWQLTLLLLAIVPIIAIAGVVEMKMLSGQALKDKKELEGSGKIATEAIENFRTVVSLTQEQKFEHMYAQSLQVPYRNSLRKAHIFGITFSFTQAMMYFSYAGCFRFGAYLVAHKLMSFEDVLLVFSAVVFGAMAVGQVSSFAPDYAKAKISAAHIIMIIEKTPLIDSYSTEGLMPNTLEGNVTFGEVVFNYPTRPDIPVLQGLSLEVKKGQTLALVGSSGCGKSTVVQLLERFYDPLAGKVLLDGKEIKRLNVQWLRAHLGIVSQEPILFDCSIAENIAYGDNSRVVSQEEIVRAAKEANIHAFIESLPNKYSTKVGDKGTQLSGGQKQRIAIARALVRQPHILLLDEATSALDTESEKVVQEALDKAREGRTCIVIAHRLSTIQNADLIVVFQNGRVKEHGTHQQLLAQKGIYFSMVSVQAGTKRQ
Procedure for MDR1: To predict the CNS penetration of the compounds described herein, several compounds were selected for an in vitro MDR1-MDCK assay. These experiments are conducted using human MDR1 transfected MDCK cells (Absorption Systems, Exton, PA) and the compounds are tested at 1 μM concentration prepared in transport buffer (Hank's balanced salt solution with HEPES) and following the steps below: • 1. MDR1-MDCK cell are cultured for 7 days in 96 well transwell insert plates (Corning). Insert plates are washed before the assay and TEER (trans epithelial electric resistance) is measured. • 2. These plates are loaded with test compound solution 85 μL for A-B transport and 260 μL for B-A transport in the respective donor compartment. The volume of receiver buffer (Transport buffer supplemented with 1% BSA) in the respective receiver compartment is 250 μL and 75 μL. • 3. 10 μL samples is taken from donor compartment (T=0 timepoint) • 4. Assay plates are incubated for 120 minutes. • 5. At 120 minutes (T=120 timepoint) samples from respective donor (10 μL) and receiver (50 μL) compartments is taken. • 6. After addition of 40 μL transport buffer with BSA to donor samples, crash solution (Acetonitrile with internal standard, 110 μL) is added to all samples. • 7. […] Samples are analyzed using LC-MS/MS coupled with high throughput injection system. • 9. […]

On to `COc1ncccc1C(=O)Nc1cccc(-c2nncn2C2(C(F)(F)F)CC2)n1` [Compound 16, 2-Methoxy-N-(6-(4-(1-(trifluoromethyl)cyclopropyl)-4H-1,2,4-triazol-3-yl)pyridin-2-yl)nicotinamide], for which the IC50 in data set [1] is no more than 1000 nM; on ASK1/MAP3K5 it was no more than 100 nM. Also, the efflux ratio at 120 min, 1 μM at MDR1 was less than 3. In addition, the Kp uu at 4 h in data set [2] came out at 0.41.
For `COc1ncccc1C(=O)Nc1cccc(-c2nncn2C(C)C)n1` [Compound 1, N-(6-(4-Isopropyl-4H-1,2,4-triazol-3-yl)pyridin-2-yl)-2-methoxynicotinamide], the IC50 in data set [1] is no more than 1000 nM; against GST-hASK1, less than 100 nM.

For orientation: IC50 means the midpoint of a concentration-inhibition curve.

Values taken from patent US12404263B2, “ASK1 inhibiting agents” (BIOGEN MA INC., priority 2018, dated 2025).
